According to US11725026B2, “Compositions and methods for inhibiting lactate dehydrogenase a activity” (Research Foundation for SUNY, priority 2019, dated 2023):
One block for each compound: values may come before it. Where a SMILES comes first, the peptide text is derived from it. Where no end group is shown, it is not given here.

Assays:
LDHA [1] = target: T1, LDHA (Homo sapiens, UniProt P00338); test: LDH activity assay (MAK066) with recombinant LDHA; type: biochemical; conditions: 25 ng recombinant LDHA pre-incubated with peptide 30 min on ice
T1 construct: a complex of FLCN-10 peptide with full-length recombinant LDHA; 6xHis (leader of vector pRSET-A) (N); made in house; host or cells: E. coli BL21 (DE3)
Protocol: Lactate dehydrogenase activity was measured according to the manufacturer's protocol (MAK066, Sigma-Aldrich). […] Samples were then transferred to an optically clear 96-well plate and substrate mix was added to each well. Absorbance was measured at 450 nm every five minutes until saturation. […] All experiments were carried out in triplicate.
Lactate dehydrogenase activity was measured according to the manufacturer's protocol (MAK066, Sigma-Aldrich). […] Samples were then transferred to an optically clear 96-well plate and substrate mix was added to each well. Absorbance was measured at 450 nm every five min until saturation.

[2] = tested on: renal tumor tissue and adjacent normal kidney-tissue from a BHD patient; test: Ex vivo peptide treatment of BHD patient renal tumor and adjacent normal tissue; set-up: species or system human; conditions: FLCN-10-Rhodamine B, 2 h at 37° C., fluorescence microscopy
Protocol: Tumor tissues from the BHD patient were obtained with written informed consent from the Department of Urology at SUNY (State University of New York) Upstate Medical University. At the time of partial nephrectomy, which was done with <15 min of renal ischemia, BHD tumors were dissected into 3-5 mm^3 pieces and cultured on a presoaked gelatin sponge (Johnson & Johnson) in 24-well plates containing 2 ml RPMI-1640 with 10% FBS, antibiotic/antimycotic solution. Tissues were cultured at 37° C. for 16 hr, followed by the addition of the indicated concentrations of FLCN-10-Rhod-B and further incubation at 37° C. for 2 hr.
Tumor and adjacent normal renal tissue from the BHD patient were obtained with written informed consent on an Institutional Review Board (IRB)-approved protocol from the Department of Urology at SUNY Upstate Medical University. At the time of partial nephrectomy, which was done with <15 min of renal ischemia, BHD tumors were dissected into 3- to 5-mm^3 pieces and cultured on a presoaked gelatin sponge (Johnson & Johnson) in 24-well plates containing 2 ml RPMI-1640 with 10% FBS and antibiotic/antimycotic solution. Tissues were cultured at 37° C. for 16 h, followed by the addition of the indicated concentrations of FLCN-10-Rhod-B and further incubation at 37° C. for 2 h. […]

LDHA (pTyr10-LDHA) = target: T2, LDHA (pTyr10-LDHA) (Homo sapiens, UniProt P00338); test: LDHA activity in cells by pTyr10-LDHA immunoblot; type: cell-based
T2 construct: a panel of cancer cell lines were immunoblotted to observe levels of endogenous FLCN and pTyr10-LDHA; endogenous in cells; host or cells: Caki-1, HEK293, PC3, A549 and other human cancer cell lines
From the text: The supernatant was then transferred to a fresh microtube.

ccRCC cell lines = test: Apoptosis / cell death in ccRCC renal cell lines (cleaved PARP/caspase-3 immunoblot, Annexin V/propidium iodide flow cytometry); type: cell-based, human; conditions: Caki-1 cells, Western blot, normalized for amount of peptide residing in cells
LDHA [3] = target: T1, LDHA; test: Fluorescence anisotropy binding of Rhodamine-B-labeled FLCN peptides to recombinant LDHA
Protocol: LDHA at the indicated concentrations was incubated on ice in 50 mM Tris pH 7.2, 150 mM NaCl, 1 mM TCEP, 4 mM MgCl2 with […] labelled FLCN peptide for 30 min.
Fluorescence anisotropy was measured using a SpectraMax 3 equipped with rhodamine fluorescence polarization module (lex\lem.535 nm/595 nm). Curve fitting was done in KaleidaGraph 4.0.
LDHA at the indicated concentrations was incubated on ice in 50 mM Tris pH 7.2, 150 mM NaCl, 1 mM TCEP, 4 mM MgCl2 with […] Rhodamine-B-labeled FLCN peptide for 30 min. Fluorescence anisotropy was measured in triplicate using a SpectraMax i3 equipped with rhodamine fluorescence polarization module (lex\lem.535 nm/595 nm). Curve fitting was done in KaleidaGraph 4.0.

- inhibitory effect on LDHA activity (LDHA [1]): 70%
Compound: CSCC[C@H](NC(=O)[C@H](CCCNC(=N)N)NC(=O)[C@H](CCC(N)=O)NC(=O)[C@H](C)N)C(=O)N[C@@H](CC(N)=O)C(=O)N[C@H](C(=O)N[C@@H](C)C(=O)N[C@@H](Cc1ccccc1)C(=O)N[C@H](C(=O)N1CCC[C@H]1C(=O)O)[C@@H](C)O)[C@@H](C)O [FLCN-10] (H-AQRMNTAFTP-OH; N-terminus and C-terminus assumed)
- tissue penetration ex vivo [2]: able to penetrate both normal and tumor tissues

- activity against LDHA in Caki-1 cells (LDHA (pTyr10-LDHA)): effective at inhibiting LDHA activity
Compound: PEGylated FLCN-10: FLCN-10 peptide modified by PEGylation to protect from cellular proteases (AQRMNTAFTP; also: PEGylated, site not given here)
- pro-apoptotic activity of modified FLCN-10 peptides (ccRCC cell lines): minimal pro-apoptotic activity

- binding to LDHA (in words) (LDHA [3]; determined by anisotropy): bound tightly to LDHA
- Ka of LDHA with FLCN peptide (LDHA [3]; fluorescence polarization anisotropy, n=3): ≈ 1×10^7
Compound: QRMNTAFTPFL [FLCN-1, peptide derived from aa220-230 of FLCN]
